# Test results reported in patent US9050376B2 (priority 2007, dated 2015).
# “Also recorded” adds a separate entry of the source.
# Assays:
# B. anthracis = tested on: B. anthracis; parameters: species or system A/J mice; conditions: mouse, in vivo
# [1] = parameters: species or system C57BL/6 mice; conditions: mouse, in vivo
# [2] = tested on: bone-marrow-derived macrophages (BMDM); assay type: cell-based, mouse; conditions: 24 hours incubation
# [3] = parameters: species or system C57BL/6 mice; conditions: mouse, in vivo, iv
# TLR7 = molecular target: T1, TLR7 (Homo sapiens, UniProt Q9NYK1); test: TLR transformants, TLR7 agonist specificity and potency; assay type: cell-based
# T1 construct: expressed in transfected cells
# T1 sequence (Q9NYK1 27-1049): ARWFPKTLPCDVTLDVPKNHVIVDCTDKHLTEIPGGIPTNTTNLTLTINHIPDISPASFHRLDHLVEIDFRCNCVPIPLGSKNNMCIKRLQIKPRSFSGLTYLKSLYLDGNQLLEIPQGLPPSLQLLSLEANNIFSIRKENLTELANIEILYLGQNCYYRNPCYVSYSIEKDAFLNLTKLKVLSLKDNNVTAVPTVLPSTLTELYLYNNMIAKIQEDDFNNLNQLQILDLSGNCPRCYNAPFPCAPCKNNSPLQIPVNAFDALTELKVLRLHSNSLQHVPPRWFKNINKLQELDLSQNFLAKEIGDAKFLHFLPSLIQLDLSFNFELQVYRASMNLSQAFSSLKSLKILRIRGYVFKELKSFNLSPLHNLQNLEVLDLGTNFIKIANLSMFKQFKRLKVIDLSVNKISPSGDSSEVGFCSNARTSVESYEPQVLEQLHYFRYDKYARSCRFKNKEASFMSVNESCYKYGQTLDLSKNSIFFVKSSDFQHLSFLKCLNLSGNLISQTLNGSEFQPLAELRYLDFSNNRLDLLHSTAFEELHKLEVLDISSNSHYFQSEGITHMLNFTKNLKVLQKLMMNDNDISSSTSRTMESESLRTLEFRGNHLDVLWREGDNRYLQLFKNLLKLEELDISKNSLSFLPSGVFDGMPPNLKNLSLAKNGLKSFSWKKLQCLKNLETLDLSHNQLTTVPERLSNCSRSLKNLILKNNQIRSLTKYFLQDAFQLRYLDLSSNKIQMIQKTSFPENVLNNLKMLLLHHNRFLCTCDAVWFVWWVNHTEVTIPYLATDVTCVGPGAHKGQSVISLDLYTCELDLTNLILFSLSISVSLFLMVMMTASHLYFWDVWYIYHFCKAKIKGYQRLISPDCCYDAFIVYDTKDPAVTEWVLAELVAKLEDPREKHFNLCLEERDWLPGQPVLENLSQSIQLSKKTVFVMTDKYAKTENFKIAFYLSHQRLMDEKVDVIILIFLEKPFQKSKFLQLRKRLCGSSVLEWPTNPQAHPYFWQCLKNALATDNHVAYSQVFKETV
# [4] = tested on: B16 melanoma tumor cells expressing the cOVA transgene; parameters: species or system C57/B1 mice; conditions: mouse, in vivo
# anthrax infection = conditions: in vivo
compound,measurement,setting,value
"COCCOc1nc(N)c2nc(O)n(Cc3ccc(C=O)cc3)c2n1 [UC-1V150, 4-[6-amino-8-hydroxy-2-(2-methoxyethoxy)purin-9-ylmethyl]benzaldehyde]",effect on survival / protection,B. anthracis,no significant difference; also recorded: failed to protect
same,cytokine production in the BALF,[1],induced selective cytokine production
same,cytokine release / activation of BMDM,[2],stimulated cytokine release; also recorded: active at nanomolar concentrations
same,time of peak serum cytokine levels,[3],about 2 hours
same,TLR specificity,TLR7,specific TLR7 agonist
"chicken ovalbumin: antigen alone, comparator",median survival,[4],22 days
O=C(O)c1cn(C2CC2)c2cc(N3CCNCC3)c(F)cc2c1=O [ciprofloxacin],survival,anthrax infection,15-25%
